Where two headings read alike, the source gives them in different places.
Key:
[1] = tested on: Aβ peptide production in rat primary neuronal culture; test: In vitro cellular assay: quantification of Aβ peptide in culture of neurons from rat fetus brain; type: cell-based, Wistar rat; conditions: Primary cortical neuron; Aβ ELISA, rat primary cortical neurons; Aβ species (x-40 or x-42) not given; read-out: IC50
Method: Quantification of Aβ Peptide in Culture of Neurons from Rat Fetus Brain
Primary neuronal cultures were prepared from the cerebral cortex of embryonic day 18 Wistar rats (Charles River, UK). Specifically, the embryos were aseptically removed from pregnant rats under ether anesthesia. The brain was isolated from the embryo and immersed in HBSS (Sigma Aldrich #H9269) containing 10 mM HEPES (Gibco #15630-056). The cerebral cortex was collected from the isolated brain under a stereoscopic microscope. The cerebral cortex fragments collected were enzymatically treated in an enzyme solution containing 0.05% trypsin-EDTA solution (GIBCO, #25300) at 37° C. for 20 minutes to disperse the cells. The cells were then washed twice and then gently resuspended in Neurobasal medium (Gibco #21103) supplemented with 2% B27 supplement (GIBCO #17504-044), 0.5 mM L-glutamine (GIBCO #25030), 1×N2 (GIBCO #17502-048), 100 μg/ml Pen/Strep (GIBCO 15140-122) and 5% heat inactivated FCS (PAA #A15-701). The cell dispersion was filtered through a 40-μm nylon mesh (BD Falcon #352340) to remove the remaining cell mass, and thus a neuronal cell suspension was obtained. The neuronal cell suspension was diluted with the medium above and then plated in a volume of 100 μL/well at an initial cell density of 3.25×10^5 cells/ml in poly-D-lysine coated 96-well culture plate (Greiner #655940). The plated cells were cultured in the culture plate at 37° C. in 5% CO2-95% air for 24 hrs. The total amount of the medium was replaced with ‘assay Neurobasal medium’ (as above excluding heat inactivated FCS), and then the cells were cultured for a further five days.
The drug was added to the culture plate on Day 6 of culture as follows. 8 point compound serial dilutions were generated in DMSO at a concentration of ×1000 that of the final assay concentration (FAC). Compound solutions were then prepared by adding 999 ul of ‘Assay Neurobasal media’ (as described in above section) to 1 ul of DMSO compound stock. The total amount of the medium was removed from each of the cell plate wells, and […] of ‘Assay Neurobasal media’ was added followed by […] of compound solution. The final DMSO concentration was 0.1%. […]
Cell survival was evaluated using an Alamar assay according to the following procedure. […]
Measurement of fluorescence intensity for each well was the carried out at 540/590 nm using a Pherastar plus plate reader (BMG labtech). […]
Human/Rat β Amyloid (42) ELISA Kit Wako (#290-62601) and Human/Rat P Amyloid (40) ELISA Kit Wako (#294-62501) from Wako Pure Chemical Industries, Ltd. were used for Aβ ELISA. […] The results were shown as percentage of the control groups and IC50 values for each compound were determined using four parameter logistic fit model using the XLFIT5 software package (IDBS).

[2] = TASTPM mice, cited from earlier work; for brain concentration: oral dose of 250 mg/kg
BACE-1 = BACE-1 (Homo sapiens, UniProt P56817); conditions: cited from earlier work
Chain of BACE-1 (P56817 46-501, species assumed): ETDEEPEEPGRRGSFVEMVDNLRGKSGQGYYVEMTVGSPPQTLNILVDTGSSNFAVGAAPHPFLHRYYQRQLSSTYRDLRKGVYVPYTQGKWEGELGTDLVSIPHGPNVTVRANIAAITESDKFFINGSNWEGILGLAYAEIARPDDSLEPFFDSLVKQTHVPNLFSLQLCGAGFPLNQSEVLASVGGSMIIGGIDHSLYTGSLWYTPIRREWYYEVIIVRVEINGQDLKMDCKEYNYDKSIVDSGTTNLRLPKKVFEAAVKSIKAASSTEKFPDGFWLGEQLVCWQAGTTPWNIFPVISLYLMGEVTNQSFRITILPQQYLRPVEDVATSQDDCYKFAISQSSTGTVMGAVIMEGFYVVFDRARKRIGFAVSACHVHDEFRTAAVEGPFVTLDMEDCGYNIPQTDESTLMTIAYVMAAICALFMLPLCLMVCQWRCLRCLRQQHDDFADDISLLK

Aβ40 = conditions: TASTPM mice, cited from earlier work

Row | SMILES | IC50 [1] [nM] | increase in CNS penetration by co-administration of a Pgp inhibitor ([2]; 250 mg/kg oral, with vs without GF120918) [fold] | brain concentration ([2]; Pgp inhibitor GF120918 dosed 5 hours before) [µM] | brain concentration ([2]; no Pgp inhibitor) [µM] | IC50 (BACE-1) [nM] | effect on brain Aβ40 levels (Aβ40; 250 mg/kg oral dose, absence of a Pgp inhibitor) | reduction in brain Aβ40 levels relative to vehicle-treated mice (Aβ40; 250 mg/kg oral, Pgp inhibitor co-administered 5 hours prior) [%]
1 | COc1cnc(C(=O)Nc2cc(F)c(F)c([C@]34CO[C@H](C(F)F)[C@H]3CSC(N)=N4)c2)cn1 [Example 1, N-(3-((4aS,5S,7aS)-2-amino-5-(difluoromethyl)-4a,5,7,7a-tetrahydro-4H-furo[3,4-d][1,3]thiazin-7a-yl)-4,5-difluorophenyl)-5-methoxypyrazine-2-carboxamide] | 7 | – | – | – | – | – | –
2 | CCNc1cc(C(=O)N[C@@H](Cc2ccccc2)[C@H](O)CNCc2cccc(C(F)(F)F)c2)c(F)c(N2CCCCS2(=O)=O)c1 [GSK188909] | – | ~9 | 5.43 | 0.62 | 5 | did not have any effect | 68

Source: US9175013B2, “Fused aminodihydrothiazine derivatives” (Eisai R&D Management Co., Ltd., priority 2011, dated 2015)
